This is an account of results in PMC6211260 (Journal of Enzyme Inhibition and Medicinal Chemistry, 2018).

Structures are written as SMILES.

Assay [1] addresses T1, BRAF (V600E) (Homo sapiens, UniProt P15056, V600E).
T1 construct: purchased Reaction Biology Corp
In words: In vitro kinase screening (Kinase HotSpot). Type of assay: biochemical. Particulars: single dose of 10 µM, BRAF (V599E) in Table 6, BRAF (V600E) in text. The text has this:
(§1) To investigate the biological target of compound, Reaction Biology Corp. Kinase HotSpotSM service was used adopting standard assay protocol.

The target in assay [2] is T2, BRAF (Homo sapiens, UniProt P15056).
T2 construct: purchased Reaction Biology Corp
Description: In vitro kinase screening (Kinase HotSpot). Type of assay: biochemical. As to conditions: single dose of 10 µM.
Description: as §1

For assay [3], the target named is T3, JNK2 (Homo sapiens, UniProt P45984).
T3 construct: purchased Reaction Biology Corp
In words: In vitro kinase screening (Kinase HotSpot). As to conditions: single dose of 10 µM. Type of assay: biochemical.
Description: as §1

For assay [4], the target named is T4, GSK3b (Homo sapiens, UniProt P49841).
T4 construct: purchased Reaction Biology Corp
In words: In vitro kinase screening (Kinase HotSpot). Type of assay: biochemical. Particulars: single dose of 10 µM.
Description: as §1

Assay [5] concerns the target T5, IKKb/IKBKB (Homo sapiens, UniProt O14920).
T5 construct: purchased Reaction Biology Corp
T5 sequence (O14920 1-756): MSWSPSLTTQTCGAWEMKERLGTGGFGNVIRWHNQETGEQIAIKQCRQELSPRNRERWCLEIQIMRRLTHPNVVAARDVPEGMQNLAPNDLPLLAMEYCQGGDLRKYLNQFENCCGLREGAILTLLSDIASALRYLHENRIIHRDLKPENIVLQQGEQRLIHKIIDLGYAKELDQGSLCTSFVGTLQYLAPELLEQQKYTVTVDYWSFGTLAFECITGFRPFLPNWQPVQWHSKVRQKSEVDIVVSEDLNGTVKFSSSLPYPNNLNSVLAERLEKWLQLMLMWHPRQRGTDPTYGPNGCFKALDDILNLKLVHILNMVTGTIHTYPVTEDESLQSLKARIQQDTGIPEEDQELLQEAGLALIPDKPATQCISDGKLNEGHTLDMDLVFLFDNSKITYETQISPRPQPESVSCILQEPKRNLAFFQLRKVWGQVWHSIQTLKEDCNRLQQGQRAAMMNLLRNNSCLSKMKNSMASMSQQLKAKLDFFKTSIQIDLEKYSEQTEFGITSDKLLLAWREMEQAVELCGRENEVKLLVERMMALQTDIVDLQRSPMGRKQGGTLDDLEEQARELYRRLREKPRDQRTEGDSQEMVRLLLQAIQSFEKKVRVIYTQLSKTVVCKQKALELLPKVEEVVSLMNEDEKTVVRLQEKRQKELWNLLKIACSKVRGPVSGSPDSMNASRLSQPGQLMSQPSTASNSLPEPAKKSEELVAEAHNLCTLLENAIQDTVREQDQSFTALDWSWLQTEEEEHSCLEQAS
Description: In vitro kinase screening (Kinase HotSpot). As to conditions: single dose of 10 µM. Type of assay: biochemical.
Description: as §1

The target of assay [6] is T6, JNK3 (Homo sapiens, UniProt P53779).
T6 construct: purchased Reaction Biology Corp
Description: In vitro kinase screening (Kinase HotSpot). Type of assay: biochemical. Particulars: single dose of 10 µM.
Description: as §1

Assay [7] concerns the target T7, JNK1 (Homo sapiens, UniProt P45983).
T7 construct: purchased Reaction Biology Corp
Description: In vitro kinase screening (Kinase HotSpot). Type of assay: biochemical. As to conditions: single dose of 10 µM.
Description: as §1

Assay [8] concerns the target T8, CDK2/cyclin E (Homo sapiens, UniProt P24941).
T8 construct: purchased Reaction Biology Corp
In words: In vitro kinase screening (Kinase HotSpot). Type of assay: biochemical. As to conditions: single dose of 10 µM.
Description: as §1

Assay [9] addresses T9, P38a/MAPK14 (Homo sapiens, UniProt Q16539).
T9 construct: purchased Reaction Biology Corp
Description: In vitro kinase screening (Kinase HotSpot). As to conditions: single dose of 10 µM, P38a/MAPK14. Type of assay: biochemical.
Description: as §1

The target in assay [10] is T10, ROS/ROS1 (Homo sapiens, UniProt P08922).
T10 construct: purchased Reaction Biology Corp
In words: In vitro kinase screening (Kinase HotSpot). Particulars: single dose of 10 µM. Type of assay: biochemical.
Description: as §1

The target in assay [11] is T11, ABL1 (T315I) (Homo sapiens, UniProt P00519, T315I).
T11 construct: purchased Reaction Biology Corp
Description: In vitro kinase screening (Kinase HotSpot). As to conditions: single dose of 10 µM. Type of assay: biochemical.
Description: as §1

In assay [12] the target is T12, EGFR (Homo sapiens, UniProt P00533).
T12 construct: purchased Reaction Biology Corp
Description: In vitro kinase screening (Kinase HotSpot). Type of assay: biochemical. As to conditions: single dose of 10 µM.
Description: as §1

In assay [13] the test system is HT29 colon cancer cell line. Description: NCI-60 single-dose screening. Type of assay: cell-based. Particulars: 10 µM. On the procedure: (§2) Screening against the cancer cell lines was carried out at the National Cancer Institute (NCI, Bethesda, Maryland, USA) applying the standard protocol of the NCI[22].
(§3) The final target compounds were submitted to the National Cancer Institute (NCI), Maryland, USA[23]. Thirty-one compounds were selected to be tested over 60 cell lines at single dose 10 µM.

Assay [14] has as its system SR leukaemia cell line. Description: NCI-60 single-dose screening. Type of assay: cell-based. As to conditions: 10 µM. On the procedure: as §2, §3

T9 sequence (Q16539 whole entry): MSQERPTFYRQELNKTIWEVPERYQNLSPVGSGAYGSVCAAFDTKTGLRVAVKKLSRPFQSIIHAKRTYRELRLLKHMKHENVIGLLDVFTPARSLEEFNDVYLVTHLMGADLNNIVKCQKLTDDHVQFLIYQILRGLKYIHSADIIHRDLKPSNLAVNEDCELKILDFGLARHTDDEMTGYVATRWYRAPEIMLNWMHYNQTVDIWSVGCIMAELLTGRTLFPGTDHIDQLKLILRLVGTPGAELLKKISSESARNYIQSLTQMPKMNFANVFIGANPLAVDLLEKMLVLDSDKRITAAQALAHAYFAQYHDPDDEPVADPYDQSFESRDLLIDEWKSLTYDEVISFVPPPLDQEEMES
T4 sequence (P49841 whole entry): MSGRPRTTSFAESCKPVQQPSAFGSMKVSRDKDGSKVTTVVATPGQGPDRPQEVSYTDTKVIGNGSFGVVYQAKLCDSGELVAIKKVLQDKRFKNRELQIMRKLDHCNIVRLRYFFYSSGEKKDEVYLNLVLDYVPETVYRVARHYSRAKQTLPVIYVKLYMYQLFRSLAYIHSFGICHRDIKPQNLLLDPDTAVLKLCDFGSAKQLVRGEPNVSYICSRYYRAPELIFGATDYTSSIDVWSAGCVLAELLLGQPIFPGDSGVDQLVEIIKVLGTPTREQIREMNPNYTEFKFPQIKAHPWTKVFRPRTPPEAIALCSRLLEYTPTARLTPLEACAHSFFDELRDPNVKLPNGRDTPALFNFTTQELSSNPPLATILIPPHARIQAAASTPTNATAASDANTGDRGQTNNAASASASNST
T2 sequence (P15056 whole entry): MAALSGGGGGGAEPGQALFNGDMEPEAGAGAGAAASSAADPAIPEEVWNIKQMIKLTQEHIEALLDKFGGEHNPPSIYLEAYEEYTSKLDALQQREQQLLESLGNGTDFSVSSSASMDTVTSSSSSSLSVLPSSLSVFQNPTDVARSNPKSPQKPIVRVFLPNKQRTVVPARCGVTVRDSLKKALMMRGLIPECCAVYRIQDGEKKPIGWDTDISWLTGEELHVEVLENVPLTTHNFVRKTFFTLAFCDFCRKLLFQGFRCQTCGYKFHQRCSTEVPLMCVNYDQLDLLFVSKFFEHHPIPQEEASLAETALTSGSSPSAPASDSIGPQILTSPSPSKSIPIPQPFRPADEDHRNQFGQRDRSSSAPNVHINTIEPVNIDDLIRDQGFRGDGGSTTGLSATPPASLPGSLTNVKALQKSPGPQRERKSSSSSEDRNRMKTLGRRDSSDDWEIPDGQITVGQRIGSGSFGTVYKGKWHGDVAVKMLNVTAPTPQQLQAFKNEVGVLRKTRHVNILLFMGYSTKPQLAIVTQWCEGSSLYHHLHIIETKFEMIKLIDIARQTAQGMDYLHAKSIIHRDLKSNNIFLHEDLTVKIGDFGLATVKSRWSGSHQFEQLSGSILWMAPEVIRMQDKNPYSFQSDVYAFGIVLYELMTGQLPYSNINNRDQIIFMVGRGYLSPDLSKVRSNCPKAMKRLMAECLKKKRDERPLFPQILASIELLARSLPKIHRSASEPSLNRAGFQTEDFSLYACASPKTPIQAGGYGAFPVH
T10 sequence (P08922 28-2347): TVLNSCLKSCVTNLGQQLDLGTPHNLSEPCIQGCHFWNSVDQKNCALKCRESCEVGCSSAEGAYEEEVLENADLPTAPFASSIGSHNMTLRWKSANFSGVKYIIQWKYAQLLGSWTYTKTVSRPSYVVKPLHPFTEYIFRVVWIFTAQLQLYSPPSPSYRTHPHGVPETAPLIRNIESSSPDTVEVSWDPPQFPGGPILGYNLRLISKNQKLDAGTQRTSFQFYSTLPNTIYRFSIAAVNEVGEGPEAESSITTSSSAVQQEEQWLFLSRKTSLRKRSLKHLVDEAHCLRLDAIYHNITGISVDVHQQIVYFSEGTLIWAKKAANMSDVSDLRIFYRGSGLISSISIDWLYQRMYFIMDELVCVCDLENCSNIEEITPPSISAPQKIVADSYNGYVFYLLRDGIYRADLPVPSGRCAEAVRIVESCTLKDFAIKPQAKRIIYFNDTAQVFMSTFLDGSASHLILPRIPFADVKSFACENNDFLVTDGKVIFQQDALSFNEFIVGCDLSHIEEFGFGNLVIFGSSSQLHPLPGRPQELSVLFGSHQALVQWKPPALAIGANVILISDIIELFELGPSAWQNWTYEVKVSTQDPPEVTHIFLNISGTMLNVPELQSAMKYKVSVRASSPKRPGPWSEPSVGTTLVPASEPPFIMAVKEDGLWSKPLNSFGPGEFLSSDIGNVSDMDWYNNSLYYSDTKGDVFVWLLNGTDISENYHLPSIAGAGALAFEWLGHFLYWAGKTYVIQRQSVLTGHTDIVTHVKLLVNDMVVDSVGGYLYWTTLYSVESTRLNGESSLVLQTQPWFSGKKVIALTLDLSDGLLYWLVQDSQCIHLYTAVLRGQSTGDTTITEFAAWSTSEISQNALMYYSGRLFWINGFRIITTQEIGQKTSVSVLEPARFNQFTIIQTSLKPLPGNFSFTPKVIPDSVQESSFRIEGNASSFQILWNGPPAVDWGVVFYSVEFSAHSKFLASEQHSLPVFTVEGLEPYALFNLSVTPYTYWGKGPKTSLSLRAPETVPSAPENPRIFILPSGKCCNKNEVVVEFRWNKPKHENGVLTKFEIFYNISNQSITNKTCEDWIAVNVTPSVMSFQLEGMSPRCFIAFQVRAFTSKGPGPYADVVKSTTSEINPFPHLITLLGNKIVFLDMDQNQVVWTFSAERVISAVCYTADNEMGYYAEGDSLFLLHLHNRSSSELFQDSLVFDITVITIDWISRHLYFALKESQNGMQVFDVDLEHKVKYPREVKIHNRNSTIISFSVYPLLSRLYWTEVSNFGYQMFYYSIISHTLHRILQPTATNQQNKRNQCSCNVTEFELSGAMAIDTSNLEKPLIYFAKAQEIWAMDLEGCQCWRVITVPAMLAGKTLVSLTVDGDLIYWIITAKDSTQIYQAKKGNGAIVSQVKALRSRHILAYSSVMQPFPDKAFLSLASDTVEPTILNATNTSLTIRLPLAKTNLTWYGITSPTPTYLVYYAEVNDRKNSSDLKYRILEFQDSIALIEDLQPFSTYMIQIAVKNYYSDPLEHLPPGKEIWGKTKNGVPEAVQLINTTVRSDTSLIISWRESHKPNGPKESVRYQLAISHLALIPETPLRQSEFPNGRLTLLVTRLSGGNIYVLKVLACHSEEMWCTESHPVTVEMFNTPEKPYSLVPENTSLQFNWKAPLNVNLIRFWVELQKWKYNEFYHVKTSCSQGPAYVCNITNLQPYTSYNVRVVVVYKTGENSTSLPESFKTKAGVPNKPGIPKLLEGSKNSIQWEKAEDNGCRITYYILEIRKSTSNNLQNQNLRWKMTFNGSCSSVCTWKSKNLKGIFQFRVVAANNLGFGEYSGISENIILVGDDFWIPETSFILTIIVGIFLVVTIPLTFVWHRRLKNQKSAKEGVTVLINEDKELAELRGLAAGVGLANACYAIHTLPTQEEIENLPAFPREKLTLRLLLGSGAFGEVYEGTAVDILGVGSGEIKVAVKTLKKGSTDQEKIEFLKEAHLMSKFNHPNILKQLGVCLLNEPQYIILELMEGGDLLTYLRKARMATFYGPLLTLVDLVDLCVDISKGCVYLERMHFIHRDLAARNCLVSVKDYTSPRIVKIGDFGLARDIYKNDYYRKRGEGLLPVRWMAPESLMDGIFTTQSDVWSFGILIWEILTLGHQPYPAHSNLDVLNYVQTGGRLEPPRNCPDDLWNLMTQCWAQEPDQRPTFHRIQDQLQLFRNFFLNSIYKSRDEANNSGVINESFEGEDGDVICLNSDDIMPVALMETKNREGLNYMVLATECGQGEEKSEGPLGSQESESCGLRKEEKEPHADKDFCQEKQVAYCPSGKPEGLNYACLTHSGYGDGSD
T1 sequence (P15056 whole entry V600E): as the sequence (P15056 whole entry) above, with V600E counted along it
T3 sequence (P45984 whole entry): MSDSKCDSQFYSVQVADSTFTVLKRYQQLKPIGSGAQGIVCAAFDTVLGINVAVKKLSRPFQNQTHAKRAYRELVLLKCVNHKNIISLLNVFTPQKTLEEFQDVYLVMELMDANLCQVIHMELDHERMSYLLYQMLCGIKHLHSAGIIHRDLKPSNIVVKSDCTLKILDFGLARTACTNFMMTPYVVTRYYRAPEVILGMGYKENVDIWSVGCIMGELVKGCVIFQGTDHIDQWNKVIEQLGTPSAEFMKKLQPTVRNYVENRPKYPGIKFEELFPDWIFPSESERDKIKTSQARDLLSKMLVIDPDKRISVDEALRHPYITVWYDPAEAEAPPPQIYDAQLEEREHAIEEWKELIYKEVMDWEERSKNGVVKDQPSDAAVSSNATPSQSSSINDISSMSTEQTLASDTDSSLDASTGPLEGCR
T6 sequence (P53779 whole entry): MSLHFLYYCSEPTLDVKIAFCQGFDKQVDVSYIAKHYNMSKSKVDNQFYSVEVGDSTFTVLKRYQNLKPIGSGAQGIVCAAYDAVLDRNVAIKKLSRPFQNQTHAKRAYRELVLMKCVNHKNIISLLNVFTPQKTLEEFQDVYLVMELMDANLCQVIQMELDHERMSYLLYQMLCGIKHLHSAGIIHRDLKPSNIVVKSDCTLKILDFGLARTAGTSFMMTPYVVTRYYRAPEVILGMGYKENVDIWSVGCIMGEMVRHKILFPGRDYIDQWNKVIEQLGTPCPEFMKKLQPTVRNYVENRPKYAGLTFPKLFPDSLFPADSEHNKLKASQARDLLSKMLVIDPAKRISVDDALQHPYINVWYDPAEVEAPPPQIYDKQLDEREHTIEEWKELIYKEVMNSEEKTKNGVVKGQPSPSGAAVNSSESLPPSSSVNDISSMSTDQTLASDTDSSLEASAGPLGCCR

Regarding `COc1cccc(-c2nn(-c3ccccc3)cc2-c2ccnc(NCCCNS(=O)(=O)c3ccc(Cl)cc3)c2)c1` [Compound 2c, 4-Chloro-N-(3-((4-(3-(3-methoxyphenyl)-1-phenyl-1H-pyrazol-4-yl)pyridin-2-yl)amino)propyl) benzenesulfonamide], the Inhibition % stood at 44.20 ± 0.40% in [1]; 20.87 ± 0.30% in assay [2]; 59.68 ± 0.01% in assay [3]; 49.31 ± 0.30% in [4]; 7.79 ± 0.15% in assay [5]; 24.23 ± 0.03% in assay [6]. Also, the Inhibition % in assay [7] was 69.19 ± 0.02%; in assay [8], 9.80 ± 1.01%; in [9] it was 65.73 ± 0.66%; in assay [10], 3.40 ± 0.39%; in assay [11], 4.53 ± 0.45%; in assay [12] it was 9.20 ± 4.45%. The per cent inhibition in assay [13] is 88.66%; in assay [14], 92.74%.
